Entries after “also recorded” stand apart in the source; their conditions may differ.

The values that follow come from patent US10709719B2, “Substituted bicyclic compounds” (BRISTOL-MYERS SQUIBB COMPANY, priority 2014, dated 2020).

One assay relates to anti-dsDNA antibodies. Description: MRL/lpr lupus model: anti-dsDNA antibody titers (ELISA). Format: in vivo. Particulars: MRL/lpr mice, p.o. daily. As for the experimental part: (§1) MRL/lpr is a spontaneous model of lupus. Male MRL/lpr mice (Jackson Laboratory) at the age of 12-14 weeks were enrolled for the study (N=12). Mice were dosed p.o. daily with vehicle (18.4% (w/v) hydroxypropyl-b-cyclodextrin in 13.8 mM citric acid) or with Example 681 at 0.06, 0.3, 1.5 mg/kg. Mice were bled every other week for anti-dsDNA antibodies measured by ELISA using pooled serum from diseased MRL/lpr mice as a positive comparator in each assay. The data were expressed in arbitrary units as a ratio of the titer of the test serum to the titer of the pooled MRL/lpr immune serum.

Another assay has as its system kidney histology score. Kind of assay: MRL/lpr lupus model: kidney histological analysis. Format: in vivo. Particulars: MRL/lpr mice, p.o. daily. The protocol:
as §1
At the end of study, one kidney was collected into 10% neutral buffered formalin and ZincTris fixatives. Fixed tissues were processed into paraffin blocks, sectioned at […], and stained with H&E or PASH. Kidney sections were graded using following criteria: Glomerular Damage: 1. Mesangial matrix thickening, cell proliferation, 2. Crescent formation, cellular deposits/casts in Bowman's space, 3. Cellular infiltration, mononuclear cells in glomerular tufts, 4. Fibrosis of Bowman's capsule. Tubular damage: 1. Infiltration of mononuclear cells, 2. Severity of tubular damage, 3. Protein casts. Tubulo-interstitial damage: 1. Fibrosis, 2. Infiltration of mononuclear cells. Each subcategory was assigned a score from 0-4, with the scores for glomerular indices representing the mean from 20 glomeruli per kidney. […]

In assay [1] the test system is experimental autoimmune encephalomyelitis, clinical score. Description: Mouse experimental autoimmune encephalomyelitis assay (EAE). It counts as in vivo. Particulars: C57Bl/6 mice, prophylactic oral dosing regimen.
Assay [2] shares this test system. Description: Rat experimental autoimmune encephalomyelitis (EAE). Format: in vivo, Lewis rats. Particulars: Lewis rat, prophylactic oral dosing regimen. The protocol:
Female Lewis rats (150-200 g; Harlan) were immunized at the base of the tail with 0.1 ml of a complete Freund's adjuvant emulsion containing 0.5 mg/mL guinea pig myelin basic protein (Genemed Synthesis) and 2 mg/mL Mycobacterium butyricum (Difco). Beginning on Day 7, rats (n=11/group) were scored individually at least 3×/wk according to the following scheme: [table] Average clinical scores were calculated for each treatment group on each day of assessment.

The subject of assay [3] is adjuvant-induced arthritis, hind paw volume. Description: Rat adjuvant induced arthritis assay (AA). Particulars: Lewis rat, prophylactic oral dosing regimen. Format: in vivo, Lewis rats. As for the experimental part:
The rat adjuvant-induced arthritis model is an animal model for human rheumatoid arthritis. Male Lewis rats (150-175 g; Harlan, n=8 treatment group) were immunized at the base of the tail with 100 μl of 10 mg/ml freshly ground Mycobacterium butyricum (Difco Laboratories) in incomplete Freund's adjuvant (sigma). Animals were dosed once daily with the test article (as a solution or suspension in the vehicle) or vehicle alone (polyethylene glycol 300, “PEG300”) starting from the day of immunization. The volumes of their hind paws were measured in a water displacement plethysmometer (Ugo Basile, Italy). The baseline paw measurements were taken before onset of the disease (between day 7 to day 10). The paw measurements were then taken three times a week until the end of the study on day 20 to 21. All procedures involving animals were reviewed and approved by the Institutional Animal Care Use Committee.

For the next assay, the target named is S1P1 (Homo sapiens (Human), UniProt P21453). Kind of assay: Receptor [35S]GTPγS binding assay (S1P1 GTPγS), membranes from S1P1/CHO cells. Particulars: result in words. Format: biochemical. As for the experimental part:
Compounds were loaded in a 384 Falcon v-bottom plate (0.5 μl/well in a 11 point, 3-fold dilution). Membranes prepared from S1P1/CHO cells or EDG3-Gal5-bla HEK293T cells (EDG3 equivalent S1P3) were added to the compound plate (40 μl/well, final protein 3 μg/well) with MULTIDROP®. […] 40 μl of the [^35S] GTP solution was added to the compound plate with a final concentration of 0.2 nM. The reaction was kept at room temperature for 45 min. At the end of incubation, all the mixtures in the compound plate were transferred to Millipore 384-well FB filter plates via the VELOCITY11® Vprep liquid handler. The filter plate was washed with water 4 times by using the manifold Embla plate washer and dried at 60° C. for 45 min. MicroScint 20 scintillation fluid (30 μl) was added to each well for counting on the Packard TOPCOUNT®.
A larger value for the GTPγS S1P3 EC50 value indicated less activity in the GTPγS S1P3 binding assay.
On the technique in general: GTPγS resists hydrolysis and so accumulates on activated G proteins.

For another assay, the target named is S1P3 (EDG3) (Homo sapiens (Human), UniProt Q99500). Description: Receptor [35S]GTPγS binding assay (S1P3 GTPγS), membranes from EDG3-Gal5-bla HEK293T cells. Format: biochemical. Particulars: GTPγS S1P1 versus S1P3, result in words. As for the experimental part: Compounds were loaded in a 384 Falcon v-bottom plate (0.5 μl/well in a 11 point, 3-fold dilution). Membranes prepared from S1P1/CHO cells or EDG3-Gal5-bla HEK293T cells (EDG3 equivalent S1P3) were added to the compound plate (40 μl/well, final protein 3 μg/well) with MULTIDROP®. [^35S]GTP (1250 Ci/mmol, Perkin Elmer) was diluted in assay buffer: 20 mM HEPES, pH7.5, 10 mM MgCl2, 150 mM NaCl, 1 mM EGTA(ethylene glycol tetraacetic acid), 1 mM DTT (Dithiothreitol), 10 μM GDP, 0.1% fatty acid free BSA, and 10 μg/ml Saponin to 0.4 nM. 40 μl of the [^35S] GTP solution was added to the compound plate with a final concentration of 0.2 nM. The reaction was kept at room temperature for 45 min. At the end of incubation, all the mixtures in the compound plate were transferred to Millipore 384-well FB filter plates via the VELOCITY11® Vprep liquid handler. The filter plate was washed with water 4 times by using the manifold Embla plate washer and dried at 60° C. for 45 min. MicroScint 20 scintillation fluid (30 μl) was added to each well for counting on the Packard TOPCOUNT®.
A smaller value for GTPγS S1P EC50 value indicated greater activity for the compound in the GTPγS S1P binding assay. A larger value for the GTPγS S1P3 EC50 value indicated less activity in the GTPγS S1P3 binding assay. […]

S1P1, sequence (P21453 whole entry): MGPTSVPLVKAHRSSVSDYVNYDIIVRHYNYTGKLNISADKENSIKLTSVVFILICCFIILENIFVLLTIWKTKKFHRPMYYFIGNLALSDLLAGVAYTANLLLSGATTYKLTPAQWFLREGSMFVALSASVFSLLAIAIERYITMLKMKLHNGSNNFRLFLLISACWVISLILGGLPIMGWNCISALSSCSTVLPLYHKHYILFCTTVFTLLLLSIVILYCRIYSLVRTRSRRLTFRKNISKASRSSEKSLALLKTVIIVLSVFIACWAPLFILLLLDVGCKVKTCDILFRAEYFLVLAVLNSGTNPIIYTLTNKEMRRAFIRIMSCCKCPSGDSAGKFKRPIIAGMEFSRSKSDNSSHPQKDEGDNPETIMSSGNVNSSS
S1P3 (EDG3), sequence (Q99500 whole entry): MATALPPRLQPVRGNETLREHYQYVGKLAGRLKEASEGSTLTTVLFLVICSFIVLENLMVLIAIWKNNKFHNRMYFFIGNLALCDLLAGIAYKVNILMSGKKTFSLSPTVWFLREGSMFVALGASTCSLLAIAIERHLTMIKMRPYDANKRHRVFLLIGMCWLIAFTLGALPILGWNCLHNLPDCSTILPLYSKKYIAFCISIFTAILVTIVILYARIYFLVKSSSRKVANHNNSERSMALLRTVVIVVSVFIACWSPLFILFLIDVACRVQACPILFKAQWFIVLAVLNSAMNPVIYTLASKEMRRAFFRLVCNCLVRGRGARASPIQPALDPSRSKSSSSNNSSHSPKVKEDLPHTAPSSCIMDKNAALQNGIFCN

Regarding `COc1ccccc1CC[C@@H]1CCc2cc([C@H]3CC[C@](N)(CO)C3)ccc2C1` [Example 681, ((1R,3S)-1-amino-3-((S)-6-(2-methoxyphenethyl)-5,6,7,8-tetrahydronaphthalen-2-yl)cyclopentyl)methanol], the “inhibition of disease progression as measured by anti-dsDNA titers” value in the assay with anti-dsDNA antibodies is listed as “showed inhibition of disease progression”. Also, the “inhibition of disease progression as measured by kidney histology” value with kidney histology score was “showed inhibition of disease progression”. Besides, the “inhibition of disease progression as measured by clinical scores” value in assay [1] was “showed inhibition of disease progression; also recorded: inhibit disease progression”.

In the case of `CCOCCC[C@@H]1CCc2cc([C@H]3CC[C@](N)(CO)C3)ccc2C1` [Example 679, ((1R,3S)-1-amino-3-((S)-6-(3-ethoxypropyl)-5,6,7,8-tetrahydronaphthalen-2-yl)cyclopentyl)methanol], the “inhibition of disease progression as measured by clinical scores” value in assay [1] is “showed inhibition of disease progression; also recorded: inhibit disease progression”. Moreover, the “inhibition of disease progression as measured by reduced clinical scores” value in assay [2] is “showed inhibition of disease progression”. In addition, in assay [3], the “inhibition of disease progression as measured by reduced paw swelling” value is on record as “showed inhibition of disease progression”.

For the compound `COc1ccccc1CCC1CCc2cc([C@H]3CC[C@](N)(COP(=O)(O)O)C3)ccc2C1` (single isomer, unassigned) [Example 697], the “activity as an agonist of S1P1” value at S1P1 was “possessed activity as an agonist of S1P1”.

`COCCCCCC1CCc2cc([C@H]3CC[C@](N)(COP(=O)(O)O)C3)ccc2C1` (single isomer, unassigned) [Example 689]: on S1P3 (EDG3), the “selectivity over S1P3” value is given as “selective over S1P3”. For the same compound, the “activity as an agonist of S1P1” value on S1P1 is given as “possessed activity as an agonist of S1P”.

For `COCCCCC[C@H]1CCc2cc([C@H]3CC[C@](N)(CO)C3)ccc2C1` [Example 672, ((1R,3S)-1-amino-3-((S)-6-(5-methoxypentyl)-5,6,7,8-tetrahydronaphthalen-2-yl)cyclopentyl)methanol], the “inhibition of disease progression as measured by reduced paw swelling” value in assay [3] is on record as “showed inhibition of disease progression”.
